Test results taken from US11674959B2, “Methods for identifying and preparing pharmaceutical agents for activating Tie1 and/or Tie2 receptors” (The Johns Hopkins University, priority 2017, dated 2023).

How the values were obtained:
Akt = test: Western blot of MEC lysates: Akt phosphorylation; assay type: cell-based, human; details: Ang2 and AXT107 treatment
Procedure: To investigate the effects of the integrin inhibitor AXT107 on Tie2 signaling, confluent monolayers of microvascular endothelial cells (MECs) on fibronectin-coated dishes were treated with various concentrations of AXT107 followed by exposure to the Tie2 ligands Ang1 or Ang2.
Human dermal microvascular endothelial cells (Lonza) were maintained at 37° C. and 5% CO2 in EBM-2MV medium (Lonza) and used between passages two through seven. Where applicable, cells were serum starved in EBM-2 medium (Lonza) with no supplements. For FITC-Dextran permeability assays phenol red-free media were used to avoid auto-fluorescence. […]
For Ang1/2 signaling investigations, cell culture dishes (10 cm diameter) were coated with 5 μg/ml fibronectin (FN1; Sigma-Aldrich, St. Louis, Mo.) for two hours at 37° C. […] Specific proteins were identified by Western blot, using the following primary antibodies: Cell Signaling—phospho-Tie2 (Y992) (Cat #: 4221), Tie2 (Cat #: 7403), phospho-Stat3 (Y705) (Cat #: 4113), Stat3 (Cat #: 4904), phospho-Akt (S473) (Cat #: 4058), Akt (Cat #: 9272), phospho-p44/42 MAPK (T202/Y204) (Cat #: 4370), p44/42 MAPK (Cat #: 4695); BD Transduction Laboratories—β1 integrin (Cat #: 610467); Millipore—α5 integrin (Cat #: AB1928) and detected with HRP-conjugated goat anti-rabbit and sheep anti-mouse secondary antibodies (GE healthcare).

MEC monolayers = test: FITC Transwell permeability assay; assay type: cell-based, human
Procedure: The integrity of these junctions is also important for the regulation of monolayer permeability by controlling the size of intercellular openings. The effect of the AXT107 on EC permeability was further investigated by the transendothelial diffusion of FITC-labeled dextran across MEC monolayers seeded onto permeable Transwell® substrates.
Human dermal microvascular endothelial cells (Lonza) were maintained at 37° C. and 5% CO2 in EBM-2MV medium (Lonza) and used between passages two through seven. Where applicable, cells were serum starved in EBM-2 medium (Lonza) with no supplements. For FITC-Dextran permeability assays phenol red-free media were used to avoid auto-fluorescence. AXT107 were manufactured at New England Peptide by […], lyophilized, and dissolved in 100% DMSO.
Transwell, twenty-four-well inserts (Corning) were coated with 7.5 μg/cm^2 FN1 for two hours at 37° C., aspirated, and then dried for thirty minutes at room temperature. Wells were then seeded with 7.5×10^4 MECs in 100 μl of EBM-2 media (without phenol red) and allowed to settle for thirty minutes at room temperature. 1 ml of EGM-2 media was then added to the bottom chamber and an additional 200 μl to the top chamber. The plate was incubated for twenty-four hours at 37° C. after which the media was aspirated and an additional 7.5×10^4 MECs were plated in each well as described above. After forty-eight hours at 37° C., the media was aspirated from both chambers and the cells were washed twice in dPBS containing Ca^2+ and Mg^2+, once with EBM-2 media (without phenol red) and serum starved in EBM-2 media applied to both chambers for two hours at 37° C. After this incubation, 100 μM AXT107 or an equivalent amount of DMSO vehicle was added and incubated for an additional ninety minutes. In the top chamber, the cells were then treated with 200 ng/ml Ang2, 100 ng/ml VEGFA, both, or PBS control and in the bottom chamber, the cells were then treated with 25 μg/ml FITC-Dextran (40 kDa MW). AXT107 was also added in both chambers to maintain a concentration of 100 μM. After three hours, 10 μl was removed from the top chamber of each well and mixed with 90 μl of water in a clear bottom, 96-well plate. Fluorescence values for each sample were calculated using a Perkin Elmer plate reader.

integrin αvβ3 = integrin αvβ3 (Homo sapiens, UniProt P05106+P06756); details: Lee et al. 2014; Lima et al. 2017; cited from earlier work
integrin αvβ3, sequence (P06756 31-1048): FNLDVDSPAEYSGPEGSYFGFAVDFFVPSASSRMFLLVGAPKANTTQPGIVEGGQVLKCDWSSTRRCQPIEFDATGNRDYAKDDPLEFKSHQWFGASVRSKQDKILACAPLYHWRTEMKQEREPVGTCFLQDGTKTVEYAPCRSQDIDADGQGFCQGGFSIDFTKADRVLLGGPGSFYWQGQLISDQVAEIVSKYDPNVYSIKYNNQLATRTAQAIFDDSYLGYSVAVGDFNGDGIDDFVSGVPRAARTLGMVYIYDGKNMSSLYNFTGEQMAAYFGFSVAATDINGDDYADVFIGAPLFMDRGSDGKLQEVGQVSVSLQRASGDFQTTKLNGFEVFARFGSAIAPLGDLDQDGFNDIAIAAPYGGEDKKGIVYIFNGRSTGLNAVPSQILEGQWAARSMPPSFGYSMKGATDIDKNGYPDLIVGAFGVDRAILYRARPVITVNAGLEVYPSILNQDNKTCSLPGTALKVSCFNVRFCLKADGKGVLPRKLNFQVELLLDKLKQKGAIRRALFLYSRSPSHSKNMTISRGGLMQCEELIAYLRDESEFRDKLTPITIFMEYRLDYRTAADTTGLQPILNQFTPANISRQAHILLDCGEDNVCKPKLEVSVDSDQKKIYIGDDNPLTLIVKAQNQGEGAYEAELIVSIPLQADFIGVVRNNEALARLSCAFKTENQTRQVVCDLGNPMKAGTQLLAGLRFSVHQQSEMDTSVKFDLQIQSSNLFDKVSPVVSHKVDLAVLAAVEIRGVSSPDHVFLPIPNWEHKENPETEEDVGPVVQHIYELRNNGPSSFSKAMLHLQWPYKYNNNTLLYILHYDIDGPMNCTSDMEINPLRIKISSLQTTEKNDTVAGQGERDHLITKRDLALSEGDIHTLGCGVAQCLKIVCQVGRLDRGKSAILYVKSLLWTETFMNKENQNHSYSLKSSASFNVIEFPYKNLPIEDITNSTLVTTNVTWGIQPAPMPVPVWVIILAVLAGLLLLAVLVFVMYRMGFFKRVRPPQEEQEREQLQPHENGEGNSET
integrin αvβ3, sequence (P05106 27-788): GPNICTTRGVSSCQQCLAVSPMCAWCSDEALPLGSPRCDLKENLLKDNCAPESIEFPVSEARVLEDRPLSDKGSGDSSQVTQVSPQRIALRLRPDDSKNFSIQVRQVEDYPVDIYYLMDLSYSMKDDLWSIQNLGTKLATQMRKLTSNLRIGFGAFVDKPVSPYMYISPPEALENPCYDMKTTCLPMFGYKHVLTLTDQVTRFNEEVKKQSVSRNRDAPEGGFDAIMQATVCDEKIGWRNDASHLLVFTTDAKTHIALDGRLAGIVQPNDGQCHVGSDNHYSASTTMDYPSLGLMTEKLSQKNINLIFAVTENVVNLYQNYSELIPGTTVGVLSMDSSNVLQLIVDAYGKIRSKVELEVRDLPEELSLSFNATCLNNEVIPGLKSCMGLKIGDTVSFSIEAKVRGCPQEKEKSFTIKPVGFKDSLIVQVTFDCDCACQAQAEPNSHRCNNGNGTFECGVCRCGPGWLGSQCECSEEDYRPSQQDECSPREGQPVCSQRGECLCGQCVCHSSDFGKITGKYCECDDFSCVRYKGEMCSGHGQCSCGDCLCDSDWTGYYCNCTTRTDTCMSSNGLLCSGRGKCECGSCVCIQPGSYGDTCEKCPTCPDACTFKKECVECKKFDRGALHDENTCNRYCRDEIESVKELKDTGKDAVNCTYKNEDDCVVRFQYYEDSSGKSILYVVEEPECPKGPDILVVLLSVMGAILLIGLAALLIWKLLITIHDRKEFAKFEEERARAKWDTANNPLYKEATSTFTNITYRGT

LRRFSTAPFAFIDINDVINF [AXT107]
Akt phosphorylation (Akt): also increased
FITC-dextran diffusion into the top chamber (MEC monolayers; 100 μM AXT107 pre-incubation + Ang2, vs growth factor alone): significant decrease in FITC-dextran diffusion into the top chamber
FITC-dextran diffusion into the top chamber (MEC monolayers; 100 μM AXT107 pre-incubation + Ang2 in combination with VEGF, vs growth factors alone): significant decrease in FITC-dextran diffusion into the top chamber
FITC-dextran diffusion into the top chamber (MEC monolayers; VEGF in the presence vs absence of peptide): similar, but non-significant trend
FITC-dextran diffusion across the monolayer, agent alone (MEC monolayers; single agent alone, FITC-Dextran 40 kDa, three hours): influenced FITC-dextran diffusion across the monolayer
Binding to integrin αvβ3 (integrin αvβ3): binds tightly
